# In patent US6482824B1, “Use of n-substituted (3,6-dihydro)-2h-1,2-oxazine derivatives as selective mglur1 antagonists” (Eli Lilly and Company, priority 1998, dated 2002):
# Test: ability of test compounds to treat migraine (as described in U.S. Pat. No. 5,817,671, U.S. Pat. No. 5,792,763 and J. Neurosci. Methods 1998, 81, 19-24)
# Conditions: in vivo
compound,measurement,value
"CCOc1ccc(C2ON(S(=O)(=O)c3ccc(C(=O)NC)cc3)C(C)C=C2C)cc1 (stereo not shown) [Example 5, 3,6-Dihydro-3,5-dimethyl-6-(4-ethoxyphenyl)-2-(4-methylcarbamoylbenzenesulphonyl)-2H-1,2-oxazine]",effectiveness in treatment of migraine,particularly effective
